# Data taken from patent US20080261911A1, “Uses of diphenyl/diphenylamine carboxylic acids” (priority 2006, published 2008).
# Assays:
# VEGFR1 promoter = VEGFR1 promoter (pVEGFR1A-C) luciferase activity in Panc-1 cells; assay type: cell-based; conditions: 50 μM
# Method: FIGS. 17A-17D show effects of tolfenamic acid on the VEGFR1 promoter and mRNA expression. Transfection with pVEGFR1-A (FIG. 17A), pVEGFR1-B (FIG. 17B), and pVEGFR1-C (FIG. 17C). Panc-1 cells were transfected with pVEGFR1 constructs, treated with DMSO, 50 μM ampiroxicam, or 50 μM tolfenamic acid, and luciferase activity was determined as described in Materials and Methods. […] Results are shown for a single experiment and similar data was obtained in replicate experiments. Cells are cultured in 6-well plates in 2 ml of DME/F12 medium supplemented with 5% fetal bovine serum. After 16-20 hr when cells are 50-60% confluent, reporter gene constructs are transfected using LIPOFECTAMINE™ reagent (Invitrogen, Carlsbad, Calif.). The effects of the selective non-steroidal anti-inflammatory drugs on transactivation are investigated in Panc1 and L3.6pl cells co-transfected with different VEGF constructs (500 ng). […] For proteasome inhibitor experiments, cells will be co-treated with 2 μM lactacystin, and for electrophoretic mobility shift assay (EMSA), nuclear extracts from Panc1 and L3.6pl cells are isolated as described, and aliquots will be stored at −80° C. until used (Abdelrahim et al, 2004; Abdelrahim et al, 2005).
# [1] = tested on: cleaved poly (ADP-ribose) polymerase (PARP) protein; experiment: Apoptosis: cleaved PARP in Panc-1 cells, Western blot; assay type: cell-based; conditions: 48 hr
# Method: (§3) Cells are washed once with phosphate buffered saline PBS and collected by scraping in 200 μL of lysis buffer [50 mM HEPES, 0.5M sodium chloride, 1.5 mM magnesium chloride, 1 mM EGTA, 10% (v/v) glycerol, 1% Triton X-100, 5 μL/ml of Protease Inhibitor Cocktail (Sigma)]. The lysates from the cells are incubated on ice for 1 hr with intermittent vortexing followed by centrifugation at 40,000 g for 10 min at 4° C. Equal amounts of protein (60 μg) from each treatment group are diluted with loading buffer, boiled and loaded onto 10 and 12.5% SDS-polyacrylamide gel. […] Samples are electrophoresed, transferred to membranes, and proteins detected by incubation with polyclonal primary antibodies Sp1, Sp3, Sp4, HDAC, VEGF (a-20), c-Met, surviving, VEGF, cleaved PARP, and β-tubulin (H-235) followed by blotting with appropriate horseradish peroxidase-conjugated secondary antibody as previously described (Abdelrahim et al, 2004). After autoradiography, band intensities are determined by a scanning laser densitometer (Sharp Electronics Corporation, Mahwah, N.J.) using ZERO-D SCANALYTICS software (Scanalytics Corporation, Billerica, Mass.).
# [2] = tested on: Bic-1 esophageal cancer cells; experiment: Cell proliferation assay, BIC-1 esophageal cancer cells; assay type: cell-based; design: dose or concentration left out as unconfirmed; conditions: tolfenamic acid, DMSO control
# [3] = tested on: Sp protein binding to GC-rich VEGF promoter oligonucleotide; experiment: Gel mobility shift of nuclear extracts from L3.6pl cells with VEGF32P; assay type: cell-based, human; conditions: nuclear extracts of L3.6pl cells treated with 50 μM for 48 hr
# Method: Vascular endothelial growth factor and VEGFR1 oligonucleotides are synthesized and annealed, and 5 pmol aliquots are 5′-end-labeled using T4 kinase and [y-^32P]ATP. After the reaction sample was incubated 20 min on ice, and antibodies against Sp1, Sp3, and Sp4 proteins are added and incubated another 20 min on ice. Protein-DNA complexes are resolved by 5% polyacrylamide gel electrophoresis as previously described (Abdelrahim et al, 2004; Abdelrahim et al, 2005, Abdelrahim et al, submitted 2005).
# Panc1 or L3.6pl cells were treated with DMSO, 50 μM tolfenamic acid or 50 μM ampiroxicam for 48 hr. Nuclear extracts from these cells were isolated, incubated with VEGF^32P and analyzed in gel mobility shift assays.
# The radiolabeled oligonucleotide contained a GC-rich region (−66 to −47) from the VEGF promoter that binds Sp proteins.
# [4] = tested on: VEGF promoter constructs pVEGF1 and pVEGF2; experiment: VEGF promoter (pVEGF1/pVEGF2) luciferase transactivation in L3.6pl cells; assay type: cell-based, human; conditions: 50 μM
# Method: Cells were transfected with pVEGF1 or pVEGF2 treated with DMSO, 50 μM ampiroxicam, tolfenamic acid, or diclofenac sodium, and luciferase activity determined. […] Panc-1 cells were transfected with pVEGF2, treated with 20, 40, 60 or 80 μM ampiroxicam or tolfenamic acid, and luciferase determined. […] Cells are cultured in 6-well plates in 2 ml of DME/F12 medium supplemented with 5% fetal bovine serum.
# VEGFR1 mRNA [5] = experiment: VEGFR1 mRNA in Panc-1 cells, semi-quantitative RT-PCR; assay type: cell-based; conditions: 50 μM, 24 h
# Method: FIGS. 17A-17D show effects of tolfenamic acid on the VEGFR1 promoter and mRNA expression. Transfection with pVEGFR1-A (FIG. 17A), pVEGFR1-B (FIG. 17B), and pVEGFR1-C (FIG. 17C). Panc-1 cells were transfected with pVEGFR1 constructs, treated with DMSO, 50 μM ampiroxicam, or 50 μM tolfenamic acid, and luciferase activity was determined as described in Materials and Methods. […] Results are shown for a single experiment and similar data was obtained in replicate experiments.
# VEGFR1 mRNA [6] = experiment: VEGFR1 mRNA in L3.6pl cells, semi-quantitative RT-PCR; assay type: cell-based, human; conditions: 50 μM, 24 h
# VEGF protein = VEGF protein expression in Panc-1 cells, Western blot; assay type: cell-based; conditions: 50 μM, 48 hr, compared to DMSO
# [7] = tested on: Sp1, Sp3 and Sp4 proteins; experiment: Western blot of Sp1, Sp3 and Sp4 protein expression in L3.6pl cells; assay type: cell-based, human; conditions: 50 μM, 48 hr
# Method: Cells were treated with 50 μM non-steroidal anti-inflammatory drugs/COX-1/2 inhibitors for 48 hr and whole cell lysates were analyzed by Western blot analysis. […] Protein band intensities were standardized based on β-tubulin protein as a loading control.
# as §3
# [8] = tested on: SEG-1 esophageal cancer cells; experiment: Western blot of Sp and Sp-dependent proteins in SEG-1 esophageal cancer cells; assay type: cell-based; conditions: SEG-1 cells, 25-100 μM
# Method: (§1) Cells are washed once with phosphate buffered saline PBS and collected by scraping in 200 μL of lysis buffer [50 mM HEPES, 0.5M sodium chloride, 1.5 mM magnesium chloride, 1 mM EGTA, 10% (v/v) glycerol, 1% Triton X-100, 5 μL/ml of Protease Inhibitor Cocktail (Sigma)]. The lysates from the cells are incubated on ice for 1 hr with intermittent vortexing followed by centrifugation at 40,000 g for 10 min at 4° C. Equal amounts of protein (60 μg) from each treatment group are diluted with loading buffer, boiled and loaded onto 10 and 12.5% SDS-polyacrylamide gel. For vascular endothelial growth factor immunoblots, 100 μg of protein are used. Samples are electrophoresed, transferred to membranes, and proteins detected by incubation with polyclonal primary antibodies Sp1, Sp3, Sp4, HDAC, VEGF (a-20), c-Met, surviving, VEGF, cleaved PARP, and β-tubulin (H-235) followed by blotting with appropriate horseradish peroxidase-conjugated secondary antibody as previously described (Abdelrahim et al, 2004). After autoradiography, band intensities are determined by a scanning laser densitometer (Sharp Electronics Corporation, Mahwah, N.J.) using ZERO-D SCANALYTICS software (Scanalytics Corporation, Billerica, Mass.).
# VEGF mRNA = VEGF mRNA levels in Panc-1 cells, semi-quantitative RT-PCR; assay type: cell-based
# Panc-28 cells = experiment: Cell proliferation assay, Panc-28 cells; assay type: cell-based
# Method: (§2) FIGS. 7A-7D compares effects of tolfenamic acid and ampiroxicam on pancreatic cancer cell proliferation. […] Panc1, Panc28 and L3.6pl cells are seeded in DMEM/F12 media with 5% FBS and treated the next day with either vehicle (DMSO) or with the indicated compounds' concentrations. Cells are counted at the indicated times using a Z1™ COULTER COUNTER® cell counter. Each experiment is carried out in triplicate and results expressed as means ±SD for each determination.
# L3.6pl cells = experiment: Cell proliferation assay, L3.6pl cells; assay type: cell-based, human
# Method: as §2
# [9] = tested on: Bic-1 esophageal cancer cells; experiment: Western blot of Sp and Sp-dependent proteins in BIC-1 esophageal cancer cells; assay type: cell-based; conditions: Bic-1 cells, 25-100 μM
# Method: as §1
compound,measurement,setting,value
CCOC(=O)OC(C)OC1=C(C(=O)Nc2ccccn2)N(C)S(=O)(=O)c2ccccc21 (centres unmarked) [ampiroxicam],"luciferase activity, pVEGFR1A, pVEGFR1B and pVEGFR1C",VEGFR1 promoter,"but not DMSO or ampiroxicam, decreased luciferase activity"
same,poly (ADP-ribose) polymerase cleavage,[1]; 150 μM,only tolfenamic acid induced protein degradation and poly (ADP-ribose) polymerase cleavage
Cc1c(Cl)cccc1Nc1ccccc1C(=O)O [tolfenamic acid],growth of BIC-1 esophageal cancer cells,[2],inhibits growth
same,"luciferase activity, pVEGFR1A, pVEGFR1B and pVEGFR1C",VEGFR1 promoter,decreased luciferase activity
same,Sp3 and Sp1/Sp4 retarded bands with VEGF32P,[3],retarded bands were decreased
same,"luciferase activity, pVEGF1 and pVEGF2 constructs",[4],results similar to those observed in Panc-1 cells
same,VEGFR1 mRNA levels,VEGFR1 mRNA [5],decreased VEGFR1 mRNA levels
same,poly (ADP-ribose) polymerase cleavage,[1]; 50 μM,induced protein degradation and poly (ADP-ribose) polymerase cleavage
same,VEGFR1 mRNA levels,VEGFR1 mRNA [6],decreased VEGFR1 mRNA levels
same,decrease of vascular endothelial growth factor expression (protein),VEGF protein,greater than 60%
same,"decrease of Sp1, Sp3 and Sp4 proteins",[7],greater than 65%
same,apoptosis as shown by PARP cleavage,[8],induced apoptosis
same,"expression of Sp-dependent proteins VEGF, survivin, and c-Met",[8],"decreased expression of Sp-dependent proteins vascular endothelial growth factor (VEGF), survivin, and c-Met"
same,"protein expression of Sp1, Sp3, and Sp4",[8],"decreased protein expression of Sp1, Sp3, and Sp4"
same,decrease of vascular endothelial growth factor mRNA levels,"VEGF mRNA; 50 μM, 24 hours, compared to DMSO",greater than 60%
same,VEGF mRNA stability,"VEGF mRNA; actinomycin D alone or with 50 μM tolfenamic acid, up to 4.5 hr",decreased at similar rates
same,potency as inhibitor of pancreatic cell growth relative to ampiroxicam,Panc-28 cells,more potent as an inhibitor of pancreatic cell growth than ampiroxicam
same,cell growth,"Panc-28 cells; 25-100 μM, 6 days",significantly (p<0.05) inhibited cell growth
same,potency as inhibitor of pancreatic cell growth relative to ampiroxicam,L3.6pl cells,more potent as an inhibitor of pancreatic cell growth than ampiroxicam
same,cell growth,"L3.6pl cells; 25-100 μM, 6 days",significantly (p<0.05) inhibited cell growth
same,apoptosis as shown by PARP cleavage,[9],induced apoptosis
same,"expression of Sp-dependent proteins VEGF, survivin, and c-Met",[9],"decreased expression of Sp-dependent proteins vascular endothelial growth factor (VEGF), survivin, and c-Met"
same,"protein expression of Sp1, Sp3, and Sp4",[9],"decreased protein expression of Sp1, Sp3, and Sp4"
